Data: patent US20210244686A1, “Novel Systems And Methods For The Therapeutic Use of Cannabinoids or Cannabinoid Analogs to Increase The Lipid Order of Cholesterol Containing Cell Membranes” (The Regents of the University of Colorado a body corporate, priority 2018, published 2021)

Key:
Assay type in all cases: cell-based, human
SK-N-BE(2) cells [1] = experiment: Live cell confocal microscopy of lipid droplets (NBD-cholesterol, nile red); conditions: CBD 20 μM, 24 hrs
Text: Thus, the present inventors found multiple lines of evidence consistent with activation of cholesterol esterification in the CBD response. To further support the claim that CBD elicits cholesterol storage, the present inventors used live cell confocal microscopy of SK-N-BE(2) cells stained with both fluorescent cholesterol (22-NBD-Cholesterol) and the lipid droplet dye nile red (FIG. 4E) to quantify the number and size of lipid droplets. […] Altogether, these combined experiments highlight that the CBD response in cells includes activation of cholesterol esterification and storage.
SK-N-BE(2) cells were seeded into fibronectin coated glass bottom 96 well plates (Matriplate) at a cell density of 40,000 cells/well using low background imaging media (FluoroBrite DMEM with all supplements described, above). At the time of seeding, nile red (ThermoFisher) was added at a final concentration of 100 ng/mL and NBD-cholesterol (ThermoFisher) was added at a final concentration of 10 μg/mL. […] Lipid droplets and their sizes were detected and quantified using the ImageJ Find Particles Function, and data was subsequently processed using Microsoft Excel. Error depicted represents the standard deviation calculated from three biological replicates. […]

[2] = test system: SKNBE2 neuroblastoma cells; experiment: Toxicity profiling, percent death with and without cholesterol challenge; conditions: 24 hrs of exposure; high doses
Text: FIG. 15. Toxicity profiling.

[3] = test system: endoplasmic reticulum in SKNBE2 and HaCaT keratinocyte cells; experiment: Confocal microscopy of rhodamine-glibenclamide staining, ER structure
Method: FIG. 16. Rhodamine-glibenclamide staining in live cells is visualized by confocal microscopy in live cells. ER structure is perturbed after 2 hours of exposure to CBD and o-1602, but not for o-1821 exposure.

SK-N-BE(2) cells [4] = experiment: RNAseq transcriptomics of CBD response; conditions: 20 μM CBD
Method: In order to compare and contrast proteomic derived mechanistic components of the CBD response to that of transcriptomic components, the present inventors additionally performed RNAseq analysis of SK-N-BE(2) cells exposed to vehicle or 20 μM CBD at the time-points indicated in FIG. 1C. 5,643 differentially expressed genes were identified in the CBD response gene with a FDR<1%, which was further reduced to a list of 139 genes with an LFC>=1. […] While most of these annotations are supported by either the transcriptome or the proteome, dysregulation of cholesterol metabolism is supported by both. […] As a result of the agreement between proteomic and transcriptomic data, we focused our study thereafter on determining the role of cholesterol homeostasis in the CBD drug response.
Sequencing was performed on seven consecutive lanes. Median read counts per lane were ˜49,000 with a CV of ˜7%. Starting with 228 fastq files, each lane set was concatenated per condition. Using Trimmomtic-0.36, base pairs were trimmed if they dropped below a PHRED score of 15 within a sliding window of 4 bp. Remaining reads shorter than 35 base pairs were removed. Illumina adapter sequences were also clipped using Trimmomatic. […] Read alignment was accomplished using Tophat-2.0.13 and Cufflinks/Cuffdiff 2.2.1 was used for FPKM quantitation and differential expression analysis per time point.

In the case of `C=C(C)[C@@H]1CCC(C)=C[C@H]1c1c(O)cc(CCCCC)cc1O` [CBD, cannabidiol], the “average abundance of lipid droplets” value (SK-N-BE(2) cells [1]) is reported as “increases”, the lipid droplet size (SK-N-BE(2) cells [1]) is reported as “does not affect” and the “toxicity in cells challenged with a high cholesterol environment” value [2] is reported as “toxic”. For the same compound, the “alteration of the structure of the endoplasmic reticulum” value ([3]; SKNBE2 and HaCaT keratinocyte cells) was “dramatically alters the structure of the endoplasmic reticulum”, the ER structure ([3]; after 2 hours of exposure, live cells) was “perturbed” and the HMG-CR expression (SK-N-BE(2) cells [4]) was “transcriptional activation”.
